US20250052985A1, “SYSTEM AND METHOD FOR QUANTITATIVE PHASE IMAGING FOR MULTI-PARAMETRIC SCREENING OF TUMOR THERAPY RESPONSE” (UNIVERSITY OF UTAH RESEARCH FOUNDATION, priority 2023, published 2025)
Several values for one entry are separate records, joined by “and”; a condition that tells them apart may be missing. Identical values can stand only once. Like-named read-outs stand apart in the source and are kept apart here.

Tests used:
BT-474 cells = experiment: cells; conditions: for Max Asymptote / Min Asymptote: BT-474, 4-parameter Hill fit of mean SGR vs concentration, one line per replicate; for Hill Slope / log10(EC50): BT-474, Hill fit; for DoR QPI / ToR 20 μM: BT-474 cell line; for DoR QPI: depth of response; for ToR 20 μM: time of response at 20 μM; for EC50: Homo sapiens
How it was run: (§1)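 EC50 comes from 4-parameter Hill fits of average specific growth rate (mass accumulation) versus dose; a response is called only when the fit beats a flat line by F-test at p<0.01. Growth was tracked by differential phase contrast QPI for 24 or 72 h post-equilibration, followed by CTG ATP readout.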

MCF-7 cells [1] = experiment: cells; conditions: for Max Asymptote / Min Asymptote: MCF-7, 4-parameter Hill fit of mean SGR vs concentration, one line per replicate; for Hill Slope: MCF-7, Hill fit; for EC50: Homo sapiens; for DoR QPI / ToR 20 μM: MCF-7 cell line; for DoR QPI: depth of response; for ToR 20 μM: time of response at 20 μM
How it was run: as §1

MDA-MB-231 cells [2] = experiment: CellTiter-Glo (CTG) ATP viability assay, MDA-MB-231; type: cell-based; conditions: for Min Asymptote: MDA-MB-231, Hill fit of luminescence normalized to solvent control, one line per replicate; for EC50: Homo sapiens; for DoR CTG: MDA-MB-231 cell line, depth of response
Experimental: (§2) CTG (e.g., read by the CTG reader 115) is a cell viability assay that quantifies the amount of ATP present at the end of an experiment as an indicator of the number of live cells. The electronic controller 155 measures ATP content in each condition as a readout by a luminescent signal, which is normalized by the luminescence of the control (e.g., a control well) to determine cell viability relative to on-plate controls. In some embodiments, the CTG assay is performed by first removing 100 μL of media from each well on the well-plate 105, which is then replaced with an equal amount of CellTiter-Glo reagent (e.g., Promega, G7572). Assayed plates may be shaken at 500 RPM for 20 minutes and allowed to rest for 10 minutes. In some instances, 100 μL of volume from each well is transferred to a white 96-well plate (e.g., Perkin Elmer, 6005680). The electronic controller 155 collects luminescence data from each well using an Envision plate reader (e.g., Perkin Elmer) and normalized against the solvent control to measure ATP content. The electronic controller 155 fits a 4-parameter hill curve to the dose response to determine the EC50 and depth of response.

MCF-7 cells [3] = experiment: CellTiter-Glo (CTG) ATP viability assay, MCF-7; type: cell-based; conditions: for Min Asymptote: MCF-7, Hill fit of luminescence normalized to solvent control, one line per replicate; for EC50: Homo sapiens; for DoR CTG: MCF-7 cell line, depth of response
Experimental: as §2

MDA-MB-231 cells [4] = experiment: Quantitative phase imaging (QPI) growth response, MDA-MB-231; type: cell-based; set-up: DoR QPI: scale not given here; ToR 20 μM: unit not given here; conditions: for Max Asymptote / Min Asymptote: MDA-MB-231, 4-parameter Hill fit of mean SGR vs concentration, one line per replicate; for EC50: Homo sapiens; for DoR QPI / ToR 20 μM: MDA-MB-231 cell line; for DoR QPI: depth of response; for ToR 20 μM: time of response at 20 μM
How it was run: as §1

[5] = BT-474, 24 h, read-out: log10(EC50), 24 h QPI, BT-474, Hill fit (converted), EC50 in μM per Table 1
[6] = BT-474, read-out: EC50, QPI, BT-474 cell line, QPI growth rate

For `C[C@]12CC[C@@H]3c4ccc(O)cc4C[C@@H](CCCCCCCCC[S+]([O-])CCCC(F)(F)C(F)(F)F)[C@H]3[C@@H]1CC[C@@H]2O` (stereo partly shown) [Fulvestrant], the “Max Asymptote” value (BT-474 cells; 24 h QPI) was 0.01059, the “Min Asymptote” value (BT-474 cells; 24 h QPI) was 0.007383 and the “Hill Slope” value (BT-474 cells; 24 h QPI) was 0.5448. For the same compound, the “Max Asymptote” value (BT-474 cells; 72 h QPI) was 0.006153 and 0.002199 and 0.003561, the “Min Asymptote” value (BT-474 cells; 72 h QPI) was 0.009854 and 0.008492 and 0.009456 and the “DoR QPI” value (BT-474 cells) was 0.6. For the same compound, the “ToR 20 μM” value (BT-474 cells) was 28.9, the EC50 (BT-474 cells; [5]) was 13.7 µM and the EC50 (BT-474 cells; [6]) was 11.6 µM. For the same compound, the EC50 (BT-474 cells; BT-474, read-out: EC50, SD, BT-474 cell line, EC50 of the standard deviation) was 8.17 µM, the “Max Asymptote” value (MCF-7 cells [1]; 24 h QPI) was 0.04169 and the “Min Asymptote” value (MCF-7 cells [1]; 24 h QPI) was 0.02021. For the same compound, the “Hill Slope” value (MCF-7 cells [1]; 24 h QPI) was 0.4537, the “Max Asymptote” value (MCF-7 cells [1]; 72 h QPI) was 0.01656 and 0.01573 and the “Min Asymptote” value (MCF-7 cells [1]; 72 h QPI) was 0.02377 and 0.02811. For the same compound, the “Hill Slope” value (MCF-7 cells [1]; 72 h QPI) was 0.5562 and 0.7449, the EC50 (MCF-7 cells [1]; MCF7, 24 h, read-out: log10(EC50), 24 h QPI, MCF-7, Hill fit (converted), EC50 in μM per Table 1) was 0.000875 µM and the EC50 (MCF-7 cells [1]; MCF7, read-out: EC50, QPI, MCF-7 cell line, QPI growth rate) was 0.2 µM. The “DoR QPI” value (MCF-7 cells [1]) was 0.4, the “ToR 20 μM” value (MCF-7 cells [1]) was 23.2 and the “cluster mass over time” value (MCF-7 cells [1]; small cluster of MCF-7 cells, 20 μM, 10 h to 72 h) was “grow slowly at the beginning and end the experiment with a lower mass than they started with”. For the same compound, the “Hill Slope” value (MDA-MB-231 cells [2]; 72 h CTG, MDA-MB-231, Hill fit) was 0.7641, the “Min Asymptote” value (MDA-MB-231 cells [2]; 72 h CTG) was 0.01999 and the EC50 (MDA-MB-231 cells [2]; MDA-MB-231, 72 h, 72 h CTG, MDA-MB-231, Hill fit, read-out: log10(EC50) (converted)) was 31.4 µM. The EC50 (MDA-MB-231 cells [2]; MDA-MB-231, MDA-MB-231 cell line, CellTiter-Glo, read-out: EC50, CTG) was 31.4 µM, the “DoR CTG” value (MDA-MB-231 cells [2]; CellTiter-Glo) was 1.0 and the “Min Asymptote” value (MCF-7 cells [3]; 24 h CTG) was 0.5189 and 0.9446. For the same compound, the “Min Asymptote” value (MCF-7 cells [3]; 72 h CTG) was 0.76 and 0.7073 and 0.6956, the EC50 (MCF-7 cells [3]; MCF7, MCF-7 cell line, CellTiter-Glo, read-out: EC50, CTG (converted)) was 0.5 µM and the “DoR CTG” value (MCF-7 cells [3]; CellTiter-Glo) was 0.3. The “Max Asymptote” value (MDA-MB-231 cells [4]; 24 h QPI) was 0.02847, the “Min Asymptote” value (MDA-MB-231 cells [4]; 24 h QPI) was 0.02401 and the “Hill Slope” value (MDA-MB-231 cells [4]; 24 h QPI, MDA-MB-231, Hill fit) was 2.2482. For the same compound, the “Max Asymptote” value (MDA-MB-231 cells [4]; 72 h QPI) was 0.01423 and 0.00907, the “Min Asymptote” value (MDA-MB-231 cells [4]; 72 h QPI) was 0.02796 and 0.03032 and the “Hill Slope” value (MDA-MB-231 cells [4]; 72 h QPI, MDA-MB-231, Hill fit) was 1.492 and 0.9134. For the same compound, the EC50 (MDA-MB-231 cells [4]; MDA-MB-231, 24 h, 24 h QPI, MDA-MB-231, Hill fit, EC50 in μM per Table 1, read-out: log10(EC50) (converted)) was 3.43 µM, the EC50 (MDA-MB-231 cells [4]; MDA-MB-231, MDA-MB-231 cell line, EC50 of the standard deviation, read-out: EC50, SD (converted)) was 3.32 µM and the EC50 (MDA-MB-231 cells [4]; MDA-MB-231, MDA-MB-231 cell line, QPI growth rate, read-out: EC50, QPI) was 11.4 µM. For the same compound, the “DoR QPI” value (MDA-MB-231 cells [4]) was 0.6 and the “ToR 20 μM” value (MDA-MB-231 cells [4]) was 14.4.
`CC(=O)c1c(C)c2cnc(Nc3ccc(N4CCNCC4)cn3)nc2n(C2CCCC2)c1=O` [Palbociclib] was tested, and the “Max Asymptote” value (BT-474 cells; 24 h QPI) was 0.01082 and 0.008556 and 0.008815, the “Min Asymptote” value (BT-474 cells; 24 h QPI) was −0.01762 and −0.0277 and −0.01394 and the “Hill Slope” value (BT-474 cells; 24 h QPI) was 2.2846 and 1.7745 and 2.7163. For the same compound, the “log10(EC50)” value (BT-474 cells; 24 h QPI, EC50 in μM per Table 1) was −1.2331 and −1.2554, the “Max Asymptote” value (BT-474 cells; 72 h QPI) was −0.01228 and −0.0216 and −0.01047 and the “Min Asymptote” value (BT-474 cells; 72 h QPI) was 0.008887 and 0.008838 and 0.006465. The “log10(EC50)” value (BT-474 cells; 72 h QPI, EC50 in μM per Table 1) was −1.2071 and −1.2126, the “DoR QPI” value (BT-474 cells) was 1.6 and the “ToR 20 μM” value (BT-474 cells) was −3.0. It also gave an EC50 (BT-474 cells; [5]) of 13.9 µM, an EC50 (BT-474 cells; BT-474, 72 h, read-out: log10(EC50), 72 h QPI, BT-474, Hill fit (converted), EC50 in μM per Table 1) of 12.3 µM and an EC50 (BT-474 cells; [6]) of 11.8 µM. The “Max Asymptote” value (MCF-7 cells [1]; 24 h QPI) was 0.02169, the “Min Asymptote” value (MCF-7 cells [1]; 24 h QPI) was 0.01657 and 0.02043 and the “Hill Slope” value (MCF-7 cells [1]; 24 h QPI) was 1.6152 and 1.0687. For the same compound, the “Max Asymptote” value (MCF-7 cells [1]; 72 h QPI) was 0.009479 and 0.01292, the “Min Asymptote” value (MCF-7 cells [1]; 72 h QPI) was 0.01776 and 0.02128 and the “DoR QPI” value (MCF-7 cells [1]) was 1.0. For the same compound, the “ToR 20 μM” value (MCF-7 cells [1]) was 4.4, the “Hill Slope” value (MDA-MB-231 cells [2]; 24 h CTG, MDA-MB-231, Hill fit) was 6.945 and the “Min Asymptote” value (MDA-MB-231 cells [2]; 24 h CTG) was 0.2202. For the same compound, the “Min Asymptote” value (MDA-MB-231 cells [2]; 72 h CTG) was 0.01895 and 7.98E−09, the EC50 (MDA-MB-231 cells [2]; MDA-MB-231, 24 h, 24 h CTG, MDA-MB-231, Hill fit, read-out: log10(EC50) (converted)) was 14.2 µM and the “DoR CTG” value (MDA-MB-231 cells [2]; CellTiter-Glo) was 0.7. For the same compound, the “Hill Slope” value (MCF-7 cells [3]; 72 h CTG, MCF-7, Hill fit) was 0.7617 and 0.9004, the “log10(EC50)” value (MCF-7 cells [3]; 72 h CTG, MCF-7, Hill fit) was −0.1876 and the “Min Asymptote” value (MCF-7 cells [3]; 72 h CTG) was 0.1244 (2×) and 0.221. The EC50 (MCF-7 cells [3]; MCF7, 72 h, 72 h CTG, MCF-7, Hill fit, read-out: log10(EC50) (converted)) was 1.62 µM, the “DoR CTG” value (MCF-7 cells [3]; CellTiter-Glo) was 1.0 and the “Max Asymptote” value (MDA-MB-231 cells [4]; 24 h QPI) was 0.03459 and 0.03302 and 0.02322. For the same compound, the “Min Asymptote” value (MDA-MB-231 cells [4]; 24 h QPI) was 0.004781 and −0.01622 and 0.01166, the “Max Asymptote” value (MDA-MB-231 cells [4]; 72 h QPI) was −2.92E−05 and 0.006396 and 0.007784 and the “Min Asymptote” value (MDA-MB-231 cells [4]; 72 h QPI) was 0.03469 and 0.03153 and 0.02663. The “DoR QPI” value (MDA-MB-231 cells [4]) was 0.6 and the “ToR 20 μM” value (MDA-MB-231 cells [4]) was 1.6.
